According to the supplement of paper PMC13380429:

Tests used:
Conditions in all cases: 72 h
HepG2 [1] = experiment: cell viability relative to DMSO; higher = less toxic
Vero E6 [2] = experiment: as above
Caco-2 [3] = experiment: as above
Calu-3 [4] = experiment: as above
U2OS [5] = experiment: as above
HepG2 [6] = experiment: relative viability EC50 (midpoint between 100% and the lowest measured viability); higher = less toxic
Vero E6 [7] = experiment: as above
Caco-2 [8] = experiment: as above
Calu-3 [9] = experiment: as above
U2OS [10] = experiment: as above
HepG2 [11] = experiment: drug sensitivity score (DSS) for viability; higher = more toxic; extreme values may be limits of the assay
Vero E6 [12] = experiment: as above
Caco-2 [13] = experiment: as above
Calu-3 [14] = experiment: as above
U2OS [15] = experiment: as above

Compound	cell viability (HepG2 [1]; 1 nM) [%]	cell viability (HepG2 [1]; 10 nM) [%]	cell viability (HepG2 [1]; 100 nM) [%]	cell viability (HepG2 [1]; 1000 nM) [%]	cell viability (HepG2 [1]; 10000 nM) [%]	cell viability (Vero E6 [2]; 1 nM) [%]	cell viability (Vero E6 [2]; 10 nM) [%]	cell viability (Vero E6 [2]; 100 nM) [%]	cell viability (Vero E6 [2]; 1000 nM) [%]	cell viability (Vero E6 [2]; 10000 nM) [%]	cell viability (Caco-2 [3]; 1 nM) [%]	cell viability (Caco-2 [3]; 10 nM) [%]	cell viability (Caco-2 [3]; 100 nM) [%]	cell viability (Caco-2 [3]; 1000 nM) [%]	cell viability (Caco-2 [3]; 10000 nM) [%]	cell viability (Calu-3 [4]; 1 nM) [%]	cell viability (Calu-3 [4]; 10 nM) [%]	cell viability (Calu-3 [4]; 100 nM) [%]	cell viability (Calu-3 [4]; 1000 nM) [%]	cell viability (Calu-3 [4]; 10000 nM) [%]	cell viability (U2OS [5]; 1 nM) [%]	cell viability (U2OS [5]; 10 nM) [%]	cell viability (U2OS [5]; 100 nM) [%]	cell viability (U2OS [5]; 1000 nM) [%]	cell viability (U2OS [5]; 10000 nM) [%]	relative viability EC50 (HepG2 [6]) [µM]	relative viability EC50 (Vero E6 [7]) [µM]	relative viability EC50 (Caco-2 [8]) [µM]	relative viability EC50 (Calu-3 [9]) [µM]	relative viability EC50 (U2OS [10]) [µM]	drug sensitivity score (HepG2 [11])	drug sensitivity score (Vero E6 [12])	drug sensitivity score (Caco-2 [13])	drug sensitivity score (Calu-3 [14])	drug sensitivity score (U2OS [15])
Fc1ccc(C(c2ccccc2)(c2ccccc2F)n2ccnc2)cc1 (stereo not given) [flutrimazole]	106	110	95.7	96.5	97.7	97	102	108	118	99.2	122	112	96.1	98.9	80.5	102	92	107	90.4	106	108	107	107	102	97.1	> 10	> 10	> 10	> 10	> 10	0	0	0.7	0	0
CNC(=O)CN(CCN(CCN(CC(=O)[O-])CC(=O)NC)CC(=O)[O-])CC(=O)[O-].[Gd+3] [gadodiamide]	96.6	102	108	98.6	93.1	97.6	101	98.5	97.9	94.3	92.9	98.9	90.9	91.1	103	115	96.9	105	98.8	108	103	102	96.6	98.3	98.1	> 10	> 10	> 10	> 10	> 10	0	0	0	0	0
CC(C)=CCC[C@](C)(O[C@@H]1O[C@H](CO)[C@@H](O)[C@H](O)[C@H]1O)[C@H]1CC[C@]2(C)[C@@H]1[C@H](O)C[C@@H]1[C@@]3(C)CC[C@H](O)C(C)(C)[C@@H]3CC[C@]12C [ginsenoside-C-K]	108	111	106	92.7	85.9	109	99.7	103	98.4	98.1	91.7	104	94.5	96.2	102	89.3	97.3	98.9	101	99.4	99.4	94.7	99.7	97.5	99.3	> 10	> 10	> 10	> 10	> 10	0.7	0	0	0	0
